Test results as given in patent US20230017786A1, “DEXTR[…] A DISEASE-MODIFYING TREATMENT FOR NEUROPSYCHIATRIC DISORDERS AND DISEASES” (priority 2020, published 2023).
Several values for one entry are separate records, joined by “and”; a condition that tells them apart may be missing. Equal values may be shown once.

How the values were obtained:
[1] = molecular target: T1, human NMDA receptor GluN1-GluN2D (Homo sapiens, UniProt O15399+Q05586); assay: FLIPR calcium assay, quinolinic acid, gentamicin, dextromethadone (Example 5 Part II), GluN1-GluN2D-CHO; assay type: cell-based; details: 10 μM glycine; for calcium response (mean±SEM): GluN2D, n=42
T1 construct: expressed in transfected cells; host or cells: CHO
T1 sequence (O15399 28-1336, other chains not shown): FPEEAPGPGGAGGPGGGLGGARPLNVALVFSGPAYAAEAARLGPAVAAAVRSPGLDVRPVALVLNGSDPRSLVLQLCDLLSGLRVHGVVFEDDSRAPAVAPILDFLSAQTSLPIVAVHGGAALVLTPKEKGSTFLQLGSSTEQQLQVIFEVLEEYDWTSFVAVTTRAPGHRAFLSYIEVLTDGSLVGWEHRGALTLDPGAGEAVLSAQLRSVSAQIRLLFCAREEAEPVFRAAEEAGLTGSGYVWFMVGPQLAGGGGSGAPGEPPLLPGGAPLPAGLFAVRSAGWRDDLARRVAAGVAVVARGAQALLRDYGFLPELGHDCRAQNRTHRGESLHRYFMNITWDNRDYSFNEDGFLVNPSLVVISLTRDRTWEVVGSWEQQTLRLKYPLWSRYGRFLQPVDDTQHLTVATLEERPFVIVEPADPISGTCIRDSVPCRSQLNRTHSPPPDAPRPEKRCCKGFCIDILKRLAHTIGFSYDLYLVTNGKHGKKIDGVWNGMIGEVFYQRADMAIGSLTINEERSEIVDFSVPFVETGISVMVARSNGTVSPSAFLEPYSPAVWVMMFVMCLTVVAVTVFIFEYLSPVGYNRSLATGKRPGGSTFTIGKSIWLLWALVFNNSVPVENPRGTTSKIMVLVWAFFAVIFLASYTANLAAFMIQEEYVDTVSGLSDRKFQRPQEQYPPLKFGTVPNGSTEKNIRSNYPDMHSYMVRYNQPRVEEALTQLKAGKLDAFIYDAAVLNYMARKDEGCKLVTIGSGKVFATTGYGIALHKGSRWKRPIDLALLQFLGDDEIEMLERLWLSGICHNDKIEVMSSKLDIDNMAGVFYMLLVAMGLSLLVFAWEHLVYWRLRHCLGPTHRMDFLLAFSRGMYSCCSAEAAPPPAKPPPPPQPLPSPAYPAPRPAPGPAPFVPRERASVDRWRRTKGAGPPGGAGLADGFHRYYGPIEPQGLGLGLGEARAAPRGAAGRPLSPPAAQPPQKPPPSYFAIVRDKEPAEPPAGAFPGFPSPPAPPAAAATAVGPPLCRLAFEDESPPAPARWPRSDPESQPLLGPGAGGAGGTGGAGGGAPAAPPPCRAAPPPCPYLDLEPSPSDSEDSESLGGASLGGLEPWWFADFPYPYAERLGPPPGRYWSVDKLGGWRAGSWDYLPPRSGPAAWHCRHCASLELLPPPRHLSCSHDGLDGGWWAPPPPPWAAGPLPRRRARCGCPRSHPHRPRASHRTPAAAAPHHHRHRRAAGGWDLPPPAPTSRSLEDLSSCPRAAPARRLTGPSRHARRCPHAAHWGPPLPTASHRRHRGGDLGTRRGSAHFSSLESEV
Outline: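 CHO lines expressing diheteromeric human GluN1/GluN2A–D, loaded 1 h with Fluo-4, tested by FLIPR for intracellular calcium with 10 μM glycine present. Quinolinic acid, gentamicin and test items were run as concentration-response curves, alone or combined. EC50 obtained from a four-parameter Hill fit.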

[2] = molecular target: T1, human NMDA receptor GluN1-GluN2D; assay: FLIPR calcium assay, test item effect on L-glutamate CRC, GluN1-GluN2D-CHO; assay type: cell-based
[3] = molecular target: T2, recombinant human NMDAR GluN1 plus GluN2D (Homo sapiens, UniProt O15399+Q05586); assay: FLIPR calcium assay, gentamicin as PAM (Example 5 Part I), GluN2D cell line; assay type: cell-based; details: 10 μM test item; dextromethadone in presence and absence of 10 μM gentamicin
T2 construct: expressed in transfected cells; host or cells: CHO
T2 sequence (O15399 28-1336, other chains not shown): as above
Text: (§1) A FLIPR calcium assay was used to profile gentamicin using stable cell lines expressing diheteromeric recombinant human NMDARs, containing GluN1 plus one amongst GluN2A, GluN2B, GluN2C or GluN2D subunit.

5-HT2C receptor = molecular target: T3, 5-HT2C receptor (Homo sapiens, UniProt P28335); details: agonist; Rickli et al., 2018; cited from earlier work
T3 sequence (P28335 33-458): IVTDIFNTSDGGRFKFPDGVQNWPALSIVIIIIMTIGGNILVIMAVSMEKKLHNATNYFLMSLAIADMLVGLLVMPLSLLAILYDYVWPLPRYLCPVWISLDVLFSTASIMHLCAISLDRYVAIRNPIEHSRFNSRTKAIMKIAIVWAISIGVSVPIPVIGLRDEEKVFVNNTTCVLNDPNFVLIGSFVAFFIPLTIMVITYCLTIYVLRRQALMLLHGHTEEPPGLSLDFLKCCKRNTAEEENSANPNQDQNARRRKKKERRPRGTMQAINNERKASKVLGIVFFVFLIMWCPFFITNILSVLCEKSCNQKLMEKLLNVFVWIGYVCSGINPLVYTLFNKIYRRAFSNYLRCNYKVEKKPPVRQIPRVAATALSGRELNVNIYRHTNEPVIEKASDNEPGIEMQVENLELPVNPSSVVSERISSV

[4] = tested on: Western diet fed Sprague-Dawley rats, liver; assay: Western diet treated rats, hepatic inflammation, steatosis and lipid metabolism genes; details: 10 mg/kg, gastric gavage, 15 days
GluN1/GluN2D receptor = molecular target: T4, GluN1/GluN2D receptor (Homo sapiens, UniProt O15399+Q05586); assay: Automated patch clamp (QPatch HTX) in presence of 1 mM extracellular magnesium; assay type: cell-based; details: 10 μM dextromethadone, 1 mM Mg2+
T4 construct: expressed in transfected cells; host or cells: CHO
T4 sequence (O15399 28-1336, other chains not shown): as the sequence (O15399 28-1336, other chains not shown) above
Experimental: Automated patch clamp experiments were performed in QPatch HTX (Sophion Bioscience A/S, Ballerup, Denmark) using CHO cells stably expressing recombinant diheteromeric human NMDAR. Cells were clamped at −80 mV holding potential in presence of 1 mM extracellular magnesium. Voltage protocol included a depolarizing 2 s step pulse to +60 mV, to check quality of the seal and cell NMDAR expression level, followed by a 2 s ramp back to holding potential.

[5] = molecular target: T5, recombinant human NMDAR GluN1 plus GluN2A (Homo sapiens, UniProt Q05586+Q12879); assay: FLIPR calcium assay, gentamicin as PAM (Example 5 Part I), GluN2A cell line; assay type: cell-based; details: 10 μM test item; dextromethadone in presence and absence of 10 μM gentamicin
T5 construct: expressed in transfected cells; host or cells: CHO
T5 sequence (Q12879 23-1464, other chains not shown): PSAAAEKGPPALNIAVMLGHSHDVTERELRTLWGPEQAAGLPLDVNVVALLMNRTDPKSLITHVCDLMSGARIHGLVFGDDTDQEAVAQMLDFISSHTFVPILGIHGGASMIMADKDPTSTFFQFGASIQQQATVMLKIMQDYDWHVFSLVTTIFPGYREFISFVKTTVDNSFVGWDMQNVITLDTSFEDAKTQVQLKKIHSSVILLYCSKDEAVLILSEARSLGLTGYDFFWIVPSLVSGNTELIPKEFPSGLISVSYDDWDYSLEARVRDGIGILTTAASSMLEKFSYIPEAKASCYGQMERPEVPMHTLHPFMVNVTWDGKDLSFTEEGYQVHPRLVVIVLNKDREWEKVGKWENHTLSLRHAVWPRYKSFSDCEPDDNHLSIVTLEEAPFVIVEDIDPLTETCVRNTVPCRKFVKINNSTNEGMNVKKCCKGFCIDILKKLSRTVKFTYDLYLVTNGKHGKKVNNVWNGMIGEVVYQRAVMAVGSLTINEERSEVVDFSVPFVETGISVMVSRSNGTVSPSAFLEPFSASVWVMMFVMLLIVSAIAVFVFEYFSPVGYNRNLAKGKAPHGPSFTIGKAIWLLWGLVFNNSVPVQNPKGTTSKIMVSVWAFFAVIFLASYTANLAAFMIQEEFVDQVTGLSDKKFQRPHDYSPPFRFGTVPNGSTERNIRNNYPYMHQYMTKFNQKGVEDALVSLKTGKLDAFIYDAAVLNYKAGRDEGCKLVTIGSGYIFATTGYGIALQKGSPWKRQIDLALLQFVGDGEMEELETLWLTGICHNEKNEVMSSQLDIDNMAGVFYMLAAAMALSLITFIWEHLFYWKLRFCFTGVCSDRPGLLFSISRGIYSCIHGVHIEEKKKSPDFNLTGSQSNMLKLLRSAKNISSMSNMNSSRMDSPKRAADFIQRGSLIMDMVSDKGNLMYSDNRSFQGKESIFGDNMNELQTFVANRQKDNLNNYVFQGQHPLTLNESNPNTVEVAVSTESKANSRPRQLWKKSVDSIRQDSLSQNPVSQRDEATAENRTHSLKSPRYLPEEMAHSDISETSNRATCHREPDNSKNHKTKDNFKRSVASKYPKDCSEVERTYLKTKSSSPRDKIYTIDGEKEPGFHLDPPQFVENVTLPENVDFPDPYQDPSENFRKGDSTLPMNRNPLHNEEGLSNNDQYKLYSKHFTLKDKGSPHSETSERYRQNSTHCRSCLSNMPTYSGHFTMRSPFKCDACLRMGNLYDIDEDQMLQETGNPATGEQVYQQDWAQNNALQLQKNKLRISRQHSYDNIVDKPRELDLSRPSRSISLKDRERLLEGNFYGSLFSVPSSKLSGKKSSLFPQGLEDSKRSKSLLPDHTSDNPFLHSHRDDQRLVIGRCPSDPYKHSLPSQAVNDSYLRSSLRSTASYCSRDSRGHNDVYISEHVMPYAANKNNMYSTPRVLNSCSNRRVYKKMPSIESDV
Text: as §1

[6] = molecular target: T6, recombinant human NMDAR GluN1 plus GluN2B (Homo sapiens, UniProt Q05586+Q13224); assay: FLIPR calcium assay, gentamicin as PAM (Example 5 Part I), GluN2B cell line; assay type: cell-based; details: 10 μM test item; dextromethadone in presence and absence of 10 μM gentamicin
T6 construct: expressed in transfected cells; host or cells: CHO
Text: as §1

[7] = molecular target: human GluN1-GluN2C NMDA receptor (Homo sapiens, UniProt Q05586+Q14957); assay: Manual patch clamp trapping assay, hGluN1/hGluN2C-CHO cells; details: test item 10 μM
Chain of human GluN1-GluN2C NMDA receptor (Q14957 20-1233, other chains not shown): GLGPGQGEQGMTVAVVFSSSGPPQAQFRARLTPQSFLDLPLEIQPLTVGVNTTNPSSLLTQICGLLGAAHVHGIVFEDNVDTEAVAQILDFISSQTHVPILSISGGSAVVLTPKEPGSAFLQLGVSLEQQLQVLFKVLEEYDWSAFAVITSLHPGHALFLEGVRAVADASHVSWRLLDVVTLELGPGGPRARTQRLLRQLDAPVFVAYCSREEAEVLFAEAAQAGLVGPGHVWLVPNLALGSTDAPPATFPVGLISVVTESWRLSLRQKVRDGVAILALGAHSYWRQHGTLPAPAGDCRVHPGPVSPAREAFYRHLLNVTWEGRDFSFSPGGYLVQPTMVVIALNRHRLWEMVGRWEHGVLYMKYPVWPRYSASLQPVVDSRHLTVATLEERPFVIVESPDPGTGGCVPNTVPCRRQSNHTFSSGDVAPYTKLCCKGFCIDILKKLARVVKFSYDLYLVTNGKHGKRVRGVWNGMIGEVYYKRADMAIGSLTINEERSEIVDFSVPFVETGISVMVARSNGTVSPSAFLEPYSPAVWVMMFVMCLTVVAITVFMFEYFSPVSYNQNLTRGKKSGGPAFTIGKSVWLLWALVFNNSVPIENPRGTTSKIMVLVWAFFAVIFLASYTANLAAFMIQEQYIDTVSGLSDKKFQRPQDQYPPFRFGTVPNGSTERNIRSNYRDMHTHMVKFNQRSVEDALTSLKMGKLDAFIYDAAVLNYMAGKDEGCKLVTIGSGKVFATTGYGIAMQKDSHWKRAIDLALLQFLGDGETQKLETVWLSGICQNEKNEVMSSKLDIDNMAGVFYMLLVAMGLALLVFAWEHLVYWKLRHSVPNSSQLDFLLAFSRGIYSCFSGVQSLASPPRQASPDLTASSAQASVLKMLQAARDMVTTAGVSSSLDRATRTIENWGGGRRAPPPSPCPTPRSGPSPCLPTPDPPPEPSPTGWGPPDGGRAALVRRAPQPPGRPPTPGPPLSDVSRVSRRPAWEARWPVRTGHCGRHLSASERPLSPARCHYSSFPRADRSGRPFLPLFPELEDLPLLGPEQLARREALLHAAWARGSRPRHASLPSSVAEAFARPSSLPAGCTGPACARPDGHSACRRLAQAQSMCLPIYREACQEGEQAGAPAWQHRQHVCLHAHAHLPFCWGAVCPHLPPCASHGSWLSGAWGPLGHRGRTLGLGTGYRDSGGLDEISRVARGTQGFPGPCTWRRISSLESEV

CCC(=O)C(C[C@H](C)N(C)C)(c1ccccc1)c1ccccc1 [Dextromethadone, dextromethadone]
calcium response (mean±SEM) ([1]; 0.04 μM L-Glu + 10 μM DXT): 3.5 ± 0.2 | calcium response (mean±SEM) ([1]; 0.04 μM L-Glu + 100 μM QA + 10 μM DXT): 7.1 ± 0.4 | calcium response (mean±SEM) ([1]; 0.04 μM L-Glu + 1000 μM QA + 10 μM DXT): 33 ± 1.6 | calcium response (mean±SEM) ([1]; 0.2 μM L-Glu + 10 μM DXT): 71 ± 2.3 | calcium response (mean±SEM) ([1]; 0.2 μM L-Glu + 100 μM QA + 10 μM DXT): 69 ± 1.4 | calcium response (mean±SEM) ([1]; 0.2 μM L-Glu + 1000 μM QA + 10 μM DXT): 43 ± 1.1 | % effect on calcium entry, 100 QA + 10 DXT ([1]; 100 μM QA + 10 μM DXT): −2.4 ± 0.2% | calcium response (mean±SEM) ([1]; 1000 μM QA + 10 μM DXT): 32 ± 0.9 | % effect on calcium entry, 1000 QA + 10 DXT ([1]; 1000 μM QA + 10 μM DXT): 32 ± 0.9% | calcium response (mean±SEM) ([1]; 1000 μM QA + 10 μg/ml GENT + 10 μM DXT): 36 ± 0.8 | calcium response (mean±SEM) ([1]; Table 41: 0.04 μM L-Glu + 10 μM DXT): 3.5 ± 0.2 | calcium response (mean±SEM) ([1]; Table 43: 0.2 μM L-Glu + 10 μM DXT): 71 ± 2.3 | α, estimated cooperativity term ([2]; operational analysis for allosteric modulators): 0.22 | L-glutamate CRC HillSlope ([2]; with test item 49 nM): 1.3 | L-glutamate CRC LogEC50 ([2]; with test item 49 nM): −7.5 | L-glutamate CRC HillSlope ([2]; with test item 195 nM): 1.3 | L-glutamate CRC LogEC50 ([2]; with test item 195 nM): −7.5 | L-glutamate CRC HillSlope ([2]; with test item 781 nM): 1.7 | L-glutamate CRC LogEC50 ([2]; with test item 781 nM): −7.5 | L-glutamate CRC HillSlope ([2]; with test item 3.1 μM): 1.5 | L-glutamate CRC LogEC50 ([2]; with test item 3.1 μM): −7.4 | L-glutamate CRC HillSlope ([2]; with test item 12.5 μM): 1.1 | L-glutamate CRC LogEC50 ([2]; with test item 12.5 μM): −7.1 | L-glutamate CRC LogEC50 ([2]; with test item 50 μM): −6.9 | calcium entry induced by 0.04 μM L-glutamate [3]: significantly reduced | calcium entry induced by 0.2 μM L-glutamate [3]: significantly reduced | calcium entry induced by 10 μM L-glutamate [3]: significantly reduced | Ki (5-HT2C receptor): 1900 nM | CCL2 gene expression in liver (qRT-PCR) [4]: didn't affect significantly this increase | GPAT4 gene expression in liver (qRT-PCR) [4]: significant drop of their expression | IL-6 gene expression in liver (qRT-PCR) [4]: able to counteract this effect | IL-10 gene expression in liver (qRT-PCR) [4]: able to counteract this effect | SREPB2 gene expression in liver (qRT-PCR) [4]: significant drop of their expression | hepatic steatosis, histology [4]: reduction of steatosis | residual current, % of pre-application level (GluN1/GluN2D receptor; 1 μM L-glutamate, −80 mV, control cells 102.5±[…]): 62.5±4.1% | 10 μM or 1 μM L-glutamate elicited current (GluN1/GluN2D receptor; −30 mV to −80 mV): significantly reduced | calcium entry induced by 0.04 μM L-glutamate [5]: significantly reduced | calcium entry induced by 0.2 μM L-glutamate [5]: significantly reduced | calcium entry induced by 10 μM L-glutamate [5]: significantly reduced | calcium entry induced by 0.04 μM L-glutamate [6]: significantly reduced | calcium entry induced by 0.2 μM L-glutamate [6]: significantly reduced | calcium entry induced by 10 μM L-glutamate [6]: significantly reduced | Block trapped (BT), trapping [7]: 85.9% and 85.9%±1.9% | Block (B) of 10/10 μM L-glutamate/glycine-evoked currents ([7]; listed as dextromethadone): 83.8%±1.2% and 83.8% | Block trapped (BT), trapping ([7]; listed as dextromethadone): 85.9% and 85.9%±1.9% | Residual block (BR) ([7]; listed as dextromethadone): 71.8%±1.1% and 71.8%
